Source: patent publication US20080292584A1 (priority 2005, published 2008)
“And” between values parts separate entries of the source, which are not always exact repeats. Equal entries are not always repeated. Where two headings read alike, the source gives them in different places.

Columns and labels:
[1] = molecular target: T1, CYP2E1 (Homo sapiens, UniProt P05181); conditions: both, microsomes, 1 h, 0.75 μM, pH 7.4
Protocol: (§2) Human liver microsomes pooled from 15 individuals (male and female) (Pool HMMC-PL020; CellzDirect, Inc., In Vitro Products and Services Division) were used in some experiments of this study.
(§3) % Turnover=100−{[TA(final)]/[mean of TA(0 min)]}×100,
(§4) % Inhibition of Turnover=100{1−([TA(0 min)]−[TA(final-inhibitor)])/([TA(0 min)]−[TA(final-no inhibitor)])}.
(§5) The inhibitors or vehicle control were incubated with the pooled human liver microsomes (1 mg/mL) and NADPH (1 mM) in 0.1 M phosphate buffer, pH 7.4. […] Incubations were conducted in triplicate and terminated by addition of organic solvent. Samples were extracted and analyzed by LC-MS/MS as described above.

[2] = molecular target: T1, CYP2E1; experiment: Metabolism of metaxalone by expressed recombinant human CYP2E1 (Example 1); conditions: 30 min
Protocol: Commercially available microsomes from baculovirus-infected insect cells containing singly-expressed recombinant wild-type (*1 allele) human CYP enzymes and cDNA-expressed human cytochrome p450 oxidoreductase [BD SUPERSOMES Enzymes; BD Biosciences Discovery Labware (Woburn, Mass.)] were used.
After a 5-minute pre-incubation, an NADPH regenerating system (NRS) was added to the incubation mixtures to initiate reactions, with a final incubation volume of 0.5 mL. Incubations were continued for 30 minutes, and then terminated, except for those for CYP2C19, which were incubated for 36 minutes prior to termination.
Matrix controls were performed to determine the background signal from the matrix components (microsomes (10 pmol p450), 01N Tris buffer, NRS, and 1% methanol). […] After a 5-minute pre-incubation, 2% sodium bicarbonate solution was added to the incubation mixtures. Incubation was for 30 minutes at a final volume of 0.5 mL. Matrix and metabolic negative controls were terminated by adding an equal volume of methanol. […] Analysis of samples was subsequent to storage at −70° C.

[3] = molecular target: CYP3A4 (Homo sapiens, UniProt P08684); conditions: for Percent of VC / Specific Activity Mean ± SD: human, 10 min
Sequence of CYP3A4 (P08684 whole entry): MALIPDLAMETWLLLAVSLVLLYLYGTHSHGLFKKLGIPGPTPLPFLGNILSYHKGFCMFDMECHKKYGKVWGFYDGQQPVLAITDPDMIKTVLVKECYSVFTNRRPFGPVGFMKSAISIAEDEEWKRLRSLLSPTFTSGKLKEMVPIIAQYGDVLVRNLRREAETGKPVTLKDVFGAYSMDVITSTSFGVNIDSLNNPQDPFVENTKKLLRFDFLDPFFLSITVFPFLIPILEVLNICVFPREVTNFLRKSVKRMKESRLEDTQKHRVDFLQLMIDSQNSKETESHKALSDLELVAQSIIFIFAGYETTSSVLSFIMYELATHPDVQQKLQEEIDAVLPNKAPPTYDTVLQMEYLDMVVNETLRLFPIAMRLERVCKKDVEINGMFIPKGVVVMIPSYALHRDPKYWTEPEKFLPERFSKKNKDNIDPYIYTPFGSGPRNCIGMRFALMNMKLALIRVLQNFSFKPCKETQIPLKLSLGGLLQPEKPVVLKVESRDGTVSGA
Protocol: All other incubations were for 30 minutes.
(§1) Four replicates were performed.
as §1
Two replicates were performed.

[4] = system: CYP2A6; experiment: Induction/inhibition of CYP2A6 activity in cryopreserved human hepatocytes (coumarin); type: in vitro ADME
Description: Hepatocytes from three human donors were obtained from a cryopreserved hepatocyte bank (In Vitro Technologies, Inc., USA). After thawing, viable hepatocytes were transferred to collagen-coated 48-well plates for attachment in plating medium (DMEM stock (Dulbecco's modified Eagle's medium, supplemented with bovine serum albumin, fructose, N-(2-hydroxyethyl)piperazine-N′-(2-ethanesulfonate) (HEPES), and sodium bicarbonate), supplemented with antibiotics, bovine serum, hydrocortisone, insulin and minimum essential medium (MEM) nonessential amino acids). After attachment to the collagen matrix, plating medium was replaced with sandwich medium (plating medium supplemented with VITROGEN) and incubated until use.
The supplemented KHB was replaced with 150 μL supplemented KHB containing the appropriate isoform-selective substrate and incubated for 4 hrs prior to termination by adding 150 μL ice-cold methanol, except for the CYP2C8 incubations which were terminated by adding 150 μL acetonitrile.
All substrates were dissolved in acetonitrile.
Replicate trials and controls were performed. […] Additionally, reference control samples were included to evaluate inducibility of CYP2B6, CYP2C9, and CYP2C19 in the test system.
Mean specific activity values with associated p-values≦0.05 were deemed to be statistically significant.

[5] = molecular target: CYP2C19 (Homo sapiens, UniProt P33261); experiment: in vitro; conditions: pooled human liver microsomes, probe S-mephenytoin 50 μM (to 4′-hydroxy mephenytoin);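 also: CYP2C19 incubations ran for 30 minutes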
Sequence of CYP2C19 (P33261 whole entry): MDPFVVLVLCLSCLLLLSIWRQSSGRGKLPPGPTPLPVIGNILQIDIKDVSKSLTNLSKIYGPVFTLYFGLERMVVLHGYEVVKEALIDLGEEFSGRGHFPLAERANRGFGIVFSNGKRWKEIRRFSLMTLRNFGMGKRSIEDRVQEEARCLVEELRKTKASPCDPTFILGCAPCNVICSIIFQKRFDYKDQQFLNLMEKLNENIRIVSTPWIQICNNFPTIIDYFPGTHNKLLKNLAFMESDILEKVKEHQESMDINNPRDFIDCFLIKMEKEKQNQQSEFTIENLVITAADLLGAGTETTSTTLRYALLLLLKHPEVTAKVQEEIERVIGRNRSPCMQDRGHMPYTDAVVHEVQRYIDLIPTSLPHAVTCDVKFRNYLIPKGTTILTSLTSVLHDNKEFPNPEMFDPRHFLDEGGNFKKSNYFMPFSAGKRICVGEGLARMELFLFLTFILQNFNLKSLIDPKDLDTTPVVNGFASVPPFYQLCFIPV
Protocol: Microsomes were prepared by differential centrifugation of liver homogenates pooled from at least ten human donors.
After a 5 minute preincubation, NADPH regenerating system (NRS) was added to initiate the reaction. CYP2A6 and CYP3A4 incubations were for 10 minutes. All other incubations were for 30 minutes.
Incubations for CYP2C8 were terminated by adding 1.0 mL of ACN, while all other incubations were terminated by adding 1.0 mL of methanol.
Vehicle control experiments were performed to establish a baseline value for enzyme activity. […] Four replicates were performed.
Two replicates were performed. […] No interference was detected in any of the metabolite assay methods used.

[6] = molecular target: T2, CYP2B6 (Homo sapiens, UniProt P20813); experiment: Metabolism of metaxalone by expressed recombinant human CYP2B6 at 5 or 20 pmol (Example 4); conditions: for % Turnover Mean / [metaxalone] Mean / % Turnover % / [metaxalone]: 60 min; for % Turnover % / [metaxalone]: single replicates
T2 sequence (P20813 1-491): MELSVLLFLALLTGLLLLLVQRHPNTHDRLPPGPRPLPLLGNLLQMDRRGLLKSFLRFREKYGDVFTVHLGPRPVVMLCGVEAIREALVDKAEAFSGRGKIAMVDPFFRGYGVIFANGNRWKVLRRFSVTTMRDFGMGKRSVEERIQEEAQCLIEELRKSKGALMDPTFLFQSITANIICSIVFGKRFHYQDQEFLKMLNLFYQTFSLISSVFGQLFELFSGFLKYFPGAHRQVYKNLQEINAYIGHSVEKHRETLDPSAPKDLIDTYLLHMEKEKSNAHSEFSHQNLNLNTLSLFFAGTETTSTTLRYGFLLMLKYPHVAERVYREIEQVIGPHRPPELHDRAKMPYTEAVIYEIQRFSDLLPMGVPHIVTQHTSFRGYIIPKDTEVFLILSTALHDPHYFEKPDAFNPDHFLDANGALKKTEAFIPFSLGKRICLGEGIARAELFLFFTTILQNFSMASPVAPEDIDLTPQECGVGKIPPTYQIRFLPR

[7] = molecular target: CYP2D6 (Homo sapiens, UniProt P10635); experiment: Chemical inhibition of metaxalone turnover in human liver microsomes, CYP2D6 inhibitor quinidine; conditions: 7.5 μM metaxalone; 1 mg/mL HLM; 60 min; with quinidine; single replicates
Sequence of CYP2D6 (P10635 whole entry): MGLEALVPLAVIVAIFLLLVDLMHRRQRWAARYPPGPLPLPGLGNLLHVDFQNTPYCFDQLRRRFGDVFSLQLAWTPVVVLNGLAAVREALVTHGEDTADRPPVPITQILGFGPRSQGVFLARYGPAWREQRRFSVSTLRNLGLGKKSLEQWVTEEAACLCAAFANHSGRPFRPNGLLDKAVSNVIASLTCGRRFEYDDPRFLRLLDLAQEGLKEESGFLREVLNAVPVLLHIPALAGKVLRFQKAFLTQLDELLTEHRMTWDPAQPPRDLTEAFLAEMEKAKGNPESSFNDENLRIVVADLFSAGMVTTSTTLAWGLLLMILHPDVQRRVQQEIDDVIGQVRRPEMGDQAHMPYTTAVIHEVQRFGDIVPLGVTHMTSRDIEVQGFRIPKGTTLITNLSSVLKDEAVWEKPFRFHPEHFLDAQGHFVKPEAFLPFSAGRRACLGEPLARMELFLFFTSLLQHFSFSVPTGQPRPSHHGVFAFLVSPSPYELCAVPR
Protocol: as §2, §3, §4, §5

[8] = 0.75 μM metaxalone, 5 pmol cyp, listed as Metaxalone
[9] = 0.75 μM metaxalone, 20 pmol cyp
[10] = 0.75 μM metaxalone, 20 pmol cyp, listed as Metaxalone
[11] = 7.5 μM metaxalone, 5 pmol cyp, listed as Metaxalone
[12] = 7.5 μM metaxalone, 20 pmol cyp, listed as Metaxalone

T1 sequence (P05181 whole entry): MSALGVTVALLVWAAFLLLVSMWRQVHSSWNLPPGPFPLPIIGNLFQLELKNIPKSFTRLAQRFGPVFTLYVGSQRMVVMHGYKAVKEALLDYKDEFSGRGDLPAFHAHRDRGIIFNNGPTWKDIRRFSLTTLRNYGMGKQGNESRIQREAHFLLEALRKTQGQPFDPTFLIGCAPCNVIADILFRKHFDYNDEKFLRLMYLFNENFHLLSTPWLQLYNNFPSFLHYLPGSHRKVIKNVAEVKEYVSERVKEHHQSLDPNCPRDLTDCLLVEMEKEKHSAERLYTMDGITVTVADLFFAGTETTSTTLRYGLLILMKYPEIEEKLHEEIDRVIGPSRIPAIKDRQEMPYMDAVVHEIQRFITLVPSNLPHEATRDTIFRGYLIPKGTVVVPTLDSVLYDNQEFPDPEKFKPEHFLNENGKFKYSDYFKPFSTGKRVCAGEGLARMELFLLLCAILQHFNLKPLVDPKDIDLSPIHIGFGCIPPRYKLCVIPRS

With `Cc1cc(C)cc(OCC2CNC(=O)O2)c1` (centres unmarked) [metaxalone, 5-[(3,5-dimethylphenoxy)methyl]-2-oxazolidinone] the “% Turnover Mean” value [1] was −3.87%, the “Metaxalone Present Adjusted Individual” value ([2]; metaxalone 0.5 μM) was 0.357 µM and 0.345 µM and 0.353 µM and the “Metaxalone Present Adjusted Mean ± SD” value ([2]; metaxalone 0.5 μM) was 0.352 ± 0.00648 µM. The “Metaxalone Present Raw” value ([2]; metaxalone 0.5 μM) was 0.1787 µM and 0.1724 µM and 0.1766 µM, the “Percent of Metabolic Negative Control Individual” value ([2]; metaxalone 0.5 μM) was 101% and 97.0% and 99.4% and the “Percent of Metabolic Negative Control Mean ± SD” value ([2]; metaxalone 0.5 μM) was 99.0 ± 1.83%. The “Metaxalone Present Adjusted Individual” value ([2]; metaxalone 2.5 μM) was 1.77 μM and 1.76 μM (2×), the “Metaxalone Present Adjusted Mean ± SD” value ([2]; metaxalone 2.5 μM) was 1.76 ± 0.00318 µM and the “Metaxalone Present Raw” value ([2]; metaxalone 2.5 μM) was 0.883 µM and 0.8799 µM and 0.8821 µM. The “Percent of Metabolic Negative Control Individual” value ([2]; metaxalone 2.5 μM) was 104%, the “Percent of Metabolic Negative Control Mean ± SD” value ([2]; metaxalone 2.5 μM) was 104 ± 0.188% and the “Metaxalone Present Adjusted Individual” value ([2]; metaxalone 25 μM) was 17.5 µM and 22.3 µM and 17.8 µM. For the same molecule, the “Metaxalone Present Adjusted Mean ± SD” value ([2]; metaxalone 25 μM) was 19.2 ± 2.71 µM, the “Metaxalone Present Raw” value ([2]; metaxalone 25 μM) was 8.732 µM and 11.15 µM and 8.879 µM and the “Percent of Metabolic Negative Control Individual” value ([2]; metaxalone 25 μM) was 98.2% and 125% and 99.9%. For the same molecule, the “Percent of Metabolic Negative Control Mean ± SD” value ([2]; metaxalone 25 μM) was 108 ± 15.3%, the Inhibitor [3] was “+” and the “Percent of VC” value ([3]; 0.3 μM) was 87.1%. For the same molecule, the “Specific Activity Mean ± SD” value ([3]; 0.3 μM) was 517 ± 10.4 pmol/min/mg protein, the “Percent of VC” value ([3]; 1 μM) was 88.1% and the “Specific Activity Mean ± SD” value ([3]; 1 μM) was 523 ± 2.83 pmol/min/mg protein. The “Percent of VC” value ([3]; 3 μM) was 90.0%, the “Specific Activity Mean ± SD” value ([3]; 3 μM) was 534 ± 3.36 pmol/min/mg protein and the “Percent of VC” value ([3]; 30 μM) was 85.2%. For the same molecule, the “Specific Activity Mean ± SD” value ([3]; 30 μM) was 506 ± 29.6 pmol/min/mg protein, the “Percent of VC” value ([3]; 100 μM) was 80.3% and the “Specific Activity Mean ± SD” value ([3]; 100 μM) was 477 ± 36.3 pmol/min/mg protein. The Inducer/Inhibitor ([4]; CYP isozyme 2A6, summary of studies) was 0, the “Percent of VC” value ([4]; Donor 1, Metaxalone 0.4 μM) was 100% and the “Specific Activity Individual” value ([4]; Donor 1, Metaxalone 0.4 μM) was less than 2.68 pmol/min/million cells. The “Specific Activity Mean ± SD” value ([4]; Donor 1, Metaxalone 0.4 μM) was less than 2.68 ± 0.000 pmol/min/million cells, the “Percent of VC” value ([4]; Donor 1, Metaxalone 4 μM) was 100% and the “Specific Activity Individual” value ([4]; Donor 1, Metaxalone 4 μM) was less than 2.68 pmol/min/million cells. For the same molecule, the “Specific Activity Mean ± SD” value ([4]; Donor 1, Metaxalone 4 μM) was less than 2.68 ± 0.000 pmol/min/million cells, the “Percent of VC” value ([4]; Donor 1, Metaxalone 40 μM) was 100% and the “Specific Activity Individual” value ([4]; Donor 1, Metaxalone 40 μM) was less than 2.68 pmol/min/million cells. For the same molecule, the “Specific Activity Mean ± SD” value ([4]; Donor 1, Metaxalone 40 μM) was less than 2.68 ± 0.000 pmol/min/million cells, the “Percent of VC” value ([4]; Donor 2, Metaxalone 0.4 μM) was 100% and the “Specific Activity Individual” value ([4]; Donor 2, Metaxalone 0.4 μM) was less than 2.68 pmol/min/million cells. For the same molecule, the “Specific Activity Mean ± SD” value ([4]; Donor 2, Metaxalone 0.4 μM) was less than 2.68 ± 0.000 pmol/min/million cells, the “Percent of VC” value ([4]; Donor 2, Metaxalone 4 μM) was 100% and the “Specific Activity Individual” value ([4]; Donor 2, Metaxalone 4 μM) was less than 2.68 pmol/min/million cells. The “Specific Activity Mean ± SD” value ([4]; Donor 2, Metaxalone 4 μM) was less than 2.68 ± 0.000 pmol/min/million cells, the “Percent of VC” value ([4]; Donor 2, Metaxalone 40 μM) was 100% and the “Specific Activity Individual” value ([4]; Donor 2, Metaxalone 40 μM) was less than 2.68 pmol/min/million cells. The “Specific Activity Mean ± SD” value ([4]; Donor 2, Metaxalone 40 μM) was less than 2.68 ± 0.000 pmol/min/million cells, the “Percent of VC” value ([4]; Donor 3, Metaxalone 0.4 μM) was 100% and the “Specific Activity Individual” value ([4]; Donor 3, Metaxalone 0.4 μM) was less than 2.68 pmol/min/million cells. For the same molecule, the “Specific Activity Mean ± SD” value ([4]; Donor 3, Metaxalone 0.4 μM) was less than 2.68 ± 0.000 pmol/min/million cells, the “Percent of VC” value ([4]; Donor 3, Metaxalone 4 μM) was 100% and the “Specific Activity Individual” value ([4]; Donor 3, Metaxalone 4 μM) was less than 2.68 pmol/min/million cells. For the same molecule, the “Specific Activity Mean ± SD” value ([4]; Donor 3, Metaxalone 4 μM) was less than 2.68 ± 0.000 pmol/min/million cells, the “Percent of VC” value ([4]; Donor 3, Metaxalone 40 μM) was 100% and the “Specific Activity Individual” value ([4]; Donor 3, Metaxalone 40 μM) was less than 2.68 pmol/min/million cells. The “Specific Activity Mean ± SD” value ([4]; Donor 3, Metaxalone 40 μM) was less than 2.68 ± 0.000 pmol/min/million cells, the “effects on CYP activity” value ([4]; any of the tested concentrations (0.4, 4.0, 40 μM)) was “no significant effects” and the inhibition at 30 min, 100 μM [5] was 35.1%. The “% Turnover Mean” value ([6]; 0.75 μM metaxalone, 5 pmol cyp) was −6.8%, the “[metaxalone] Mean” value ([6]; 0.75 μM metaxalone, 5 pmol cyp) was 0.845 µM and the “% Turnover %” value [6, 8] was −11.0% and −2.8% and −6.6%. For the same molecule, the “[metaxalone]” value [6, 8] was 0.878 µM and 0.813 µM and 0.843 µM, the “% Turnover Mean” value [6, 9] was −1.8% and the “[metaxalone] Mean” value [6, 9] was 0.805 µM. For the same molecule, the “% Turnover %” value [6, 10] was 5.5% and −6.7% and −4.0%, the “[metaxalone]” value [6, 10] was 0.748 µM and 0.845 µM and 0.823 µM and the “% Turnover Mean” value ([6]; 7.5 μM metaxalone, 5 pmol cyp) was 3.0%. For the same molecule, the “[metaxalone] Mean” value ([6]; 7.5 μM metaxalone, 5 pmol cyp) was 8.20 µM, the “% Turnover %” value ([6]; 7.5 μM metaxalone, 5 pmol cyp) was −1.3% and the “% Turnover %” value [6, 11] was 3.0% and 7.2%. For the same molecule, the “[metaxalone]” value [6, 11] was 8.56 µM and 8.19 µM and 7.84 µM, the “% Turnover Mean” value ([6]; 7.5 μM metaxalone, 20 pmol cyp) was −0.20% and the “[metaxalone] Mean” value ([6]; 7.5 μM metaxalone, 20 pmol cyp) was 8.46 µM. For the same molecule, the “% Turnover %” value ([6]; 7.5 μM metaxalone, 20 pmol cyp) was −6.0%, the “% Turnover %” value [6, 12] was 1.8% and 3.6% and the “[metaxalone]” value [6, 12] was 8.95 µM and 8.29 µM and 8.14 µM. For the same molecule, the Substrate ([6]; CYP isozyme 2B6, summary of studies) was 0 and the “% Turnover” value [7] was 11.1%.
